From patent US20040053950A1, “Antimalarial activities and therapeutic properties of febrifugine analogues” (priority 2002, published 2004)
Converted amounts (≈) assume the structure as drawn. Read-outs that look alike come from different tables or passages of the source.

Experiments:
Macrophage cells (J774) = assay: In vitro drug toxicity assay, macrophage cells; format: cell-based; settings: Mus musculus
[1] = tested on: P. falciparum chloroquine-sensitive D6-strain; assay: In vitro drug susceptibility assay ([3H]-hypoxanthine incorporation), D6 strain; format: cell-based; settings: Plasmodium falciparum
Method: (§1) Potential resistance to halofuginone derivatives of P. falciparum isolates were tested. Isolates of P. falciparum stored in liquid nitrogen are thawed and cultivated in RPMI 1640 media with 6% human erythrocytes supplemented with 10% of human serum. The parasite cultures are maintained in an atmosphere of 5% CO2, 5% O2 and 90% N2 at 37° C. for the assay. The semi-automated micro-dilution technique of Desjardins is used to assess the sensitivity of the parasites to febrifugine and halofuginone derivatives. The incorporation of [3H]-hypoxanthine into the parasites is measured as a function of compound concentration to determine EC50 values.

Neuronal cells (NG108) = assay: In vitro drug toxicity assay, neuronal cells; format: cell-based; settings: NG-108
[2] = tested on: P. falciparum chloroquine-resistant W2-strain; assay: In vitro drug susceptibility assay ([3H]-hypoxanthine incorporation), W2 strain; format: cell-based; settings: Plasmodium falciparum
Method: as §1

PfMRK = target: T1, PfMRK (Plasmodium falciparum, UniProt P90584); assay: Kinase assay, recombinant plasmodial cyclin-dependent kinase; format: biochemical
T1 sequence (P90584 1-324): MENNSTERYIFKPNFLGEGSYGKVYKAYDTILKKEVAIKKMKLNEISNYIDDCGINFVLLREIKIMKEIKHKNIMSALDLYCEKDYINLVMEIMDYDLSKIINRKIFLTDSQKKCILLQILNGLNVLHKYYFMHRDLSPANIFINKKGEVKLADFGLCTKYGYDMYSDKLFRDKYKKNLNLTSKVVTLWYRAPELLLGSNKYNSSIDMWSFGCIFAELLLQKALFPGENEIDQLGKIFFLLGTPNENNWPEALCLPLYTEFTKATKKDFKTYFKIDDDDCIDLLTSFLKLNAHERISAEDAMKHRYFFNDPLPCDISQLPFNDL
Excerpt: Halofuginone is a known to be a specific collagen gene transcription inhibitor. However, inhibition to other target enzymes by febrifugine, halofuginone and halofuginone derivatives in malarial parasites remain unknown. Quinazoline analogues (the family to which these compounds belong) are known to target dihydrofolate reductase, mammalian EGFR kinase, the stress-activated protein kinase and cyclin dependent kinase. A series of enzymatic assays are used to detect whether the derivatives have inhibition against these enzymes. DHFR assay is conducted using a well-characterized spectrophotometric method. Kinase assays are conducted using radioisotope-labeling technique. The responses of the recombinant kinases to the derivatives are measured in a scintillation b-counter and illustrated using SDS-page gel and PhosphoImager. These tests provide information on the compounds' abilities to interfere with the functions of these enzymes and alter the parasite physiological pathways on a molecular basis.

[3] = Toxic effects in mice (observation and necropsy analysis); format: in vivo; settings: for diarrhea / gastrointestinal toxic effects: mice
Plasmodium berghei = assay: Modified Thompson test in P. berghei-infected mice; format: in vivo; settings: mice; for parasitemia of the infected mice: 10 mg/kg once/day for three days
Method: An active animal use protocol mouse models are used to test the above compounds to determine antimalarial activity by using modified Thompson Test. In this test, IRC mice are inoculated intraperitoneally with P. berghei-infected erythrocytes from donor mice that are anesthetized and exsanguinated via cardiac puncture to collect infected blood. The pooled blood is then diluted with normal mouse serum to a concentration of 1×10^6 P. berghei erythrocytes per inoculum (0.1 ml). The groups of testing and control mice are inoculated with the infected blood on day 0 and then treated with various dosages of halofuginone or the derivatives in aqueous-based vehicles on day 3 through the day required. The drug is administered orally (PO), subcutaneously (SC), intramuscularly (IM), and/or intraperitoneally (IP) up to three times a day, based on the requirements. Blood films and body weights are taken on the third and sixth days post-infection, then at weekly intervals through day 60. Films are Giemsa-stained, examined using light microscopy for the determination of parasitemia. All mice with negative smears at 60 days are considered cured. The data from the in vivo testing verifies the antimalarial efficacy of febrifugine, halofuginone and the halofuginone derivatives in mice and provides new properties of halofuginone and halofuginone derivatives against malarial parasites in vivo.
The modified Thompson test was conducted in eleven groups of mice with eight mice per group. The tested mice were inoculated with P. Berghei on day zero and treated with febrifugines on days three with one oral or subcutaneous treatment per day for three days. […] The parasitemia of the infected mice was reduced to less than 3% with oral administration of 10 mg/kg febrifugines one/day for three days, while mice with the subcutaneous treatment had 30% of parasitemia at the same does as shown in FIGS. 3(a) through 3(d).
Eighty-eight ICR mice were inoculated with P. berghei, and separated into nine groups. Eight of the infected groups were treated with […] different doses of halofuginone twice a day for eight days. One group was treated with physiological saline as control. […] Two mice were cured at the doses of 0.25 and 0.5 mg/kg and survived 60 days after the treatment. […] The parasites were all cleared at the does of 1 mg/kg on day six.

[4] = Table 1, D6 strain, read-out: IC50 against P. falciparum D6 strain
[5] = Table 4, D6, read-out: IC50 P. falciparum (D6)
[6] = Table 1, W2 strain, read-out: IC50 against P. falciparum W2 strain
[7] = Table 4, W2, read-out: IC50 P. falciparum (W2)

Compound	IC50 (Macrophage cells (J774); Table 2, J774) [µg/mL]	IC50 (Macrophage cells (J774); Table 4, J774) [µg/mL]	IC50 [1, 4] [ng/mL]	IC50 [1, 5] [ng/mL]	IC50 (Neuronal cells (NG108); Table 2, NG108) [µg/mL]	IC50 (Neuronal cells (NG108); Table 4, NG108) [µg/mL]	IC50 [2, 6] [µg/mL]	IC50 [2, 7] [µg/mL]	IC50 (PfMRK) [µM]	toxic effects (nausea and vomiting) in mice ([3]; antimalarial dosages)	diarrhea ([3]; effective treatment doses)	gastrointestinal toxic effects ([3]; oral treatment, toxic doses)	gastrointestinal toxic effects ([3]; subcutaneous treatment, toxic doses)	vomiting ([3]; tested mice)	diarrhea ([3]; toxic doses)	necropsy findings ([3]; toxic doses, mouse killed by drug)	efficacy of oral versus subcutaneous treatment (Plasmodium berghei; one treatment per day for three days)	parasitemia of the infected mice (Plasmodium berghei; oral administration)	parasitemia of the infected mice (Plasmodium berghei; subcutaneous treatment) [%]
COC1CCCN[C@@H]1CC(=O)Cn1cnc2cc3c(cc2c1=O)OCO3 (stereo partly shown) [WR090212]	3.54 (≈ 9.85 µM)	2.97 (≈ 8.27 µM)	18.1 (≈ 0.0504 µM)	18.9 (≈ 0.0527 µM)	26 (≈ 72.3 µM)	24.8 (≈ 69.1 µM)	0.0256 (≈ 0.0713 µM)	0.0234 (≈ 0.0651 µM)	–	–	–	–	–	–	–	–	–	–	–
O=C(C[C@H]1NCCCC1O)Cn1cnc2cc3c(cc2c1=O)OCO3 (stereo partly shown) [WR092103]	–	3.61 (≈ 10.4 µM)	–	2.38 (≈ 0.00689 µM)	–	6.86 (≈ 19.9 µM)	–	0.00293 (≈ 0.00848 µM)	–	–	–	–	–	–	–	–	–	–	–
O=C(C[C@H]1NCCCC1O)Cn1cnc2cccc(Cl)c2c1=O (stereo partly shown) [WR139672]	0.069 (≈ 0.205 µM)	0.392 (≈ 1.17 µM)	1.23 (≈ 0.00366 µM)	1.75 (≈ 0.00521 µM)	1.31 (≈ 3.91 µM)	1.16 (≈ 3.45 µM)	0.00163 (≈ 0.00484 µM)	0.00146 (≈ 0.00435 µM)	–	–	–	–	–	–	–	–	–	–	–
COC1CCCN[C@@H]1CC(=O)Cn1cnc2ccc3c(c2c1=O)OCO3 (stereo partly shown) [WR140085]	3.29 (≈ 9.14 µM)	0.425 (≈ 1.18 µM)	10.5 (≈ 0.0291 µM)	12.9 (≈ 0.036 µM)	10.8 (≈ 30.1 µM)	15.5 (≈ 43.1 µM)	0.0141 (≈ 0.0391 µM)	0.0151 (≈ 0.0419 µM)	–	–	–	–	–	–	–	–	–	–	–
CCOC1CCCN[C@@H]1CC(=O)Cn1cnc2cc(Br)c(Cl)cc2c1=O (stereo partly shown) [WR221232]	0.287 (≈ 0.647 µM)	0.613 (≈ 1.38 µM)	11.1 (≈ 0.0251 µM)	9.45 (≈ 0.0213 µM)	5.99 (≈ 13.5 µM)	8 (≈ 18.1 µM)	0.0172 (≈ 0.0388 µM)	0.0115 (≈ 0.0261 µM)	~113	–	–	–	–	–	–	–	–	–	–
O=C(C[C@H]1NCCCC1O)Cn1cnc2c(Cl)c(Cl)c(Cl)cc2c1=O (stereo partly shown) [WR222048]	0.11 (≈ 0.272 µM)	0.499 (≈ 1.23 µM)	0.962 (≈ 0.00238 µM)	0.82 (≈ 0.00203 µM)	1.1 (≈ 2.71 µM)	0.879 (≈ 2.17 µM)	0.00129 (≈ 0.00319 µM)	0.00098 (≈ 0.00242 µM)	–	–	–	–	–	–	–	–	–	–	–
(2′S,3′R)-3-[3-(3-hydroxy-2-piperidyl)acetonyl]-4(3H)quinazolinone [Febrifugine]	–	–	–	–	–	–	–	–	–	do not appear to have such toxic effects	did not induce diarrhea	severe gastrointestinal lesions and hemorrhage	did not induce GI tract injury	No vomiting has been observed	caused diarrhea	pale liver and intestine lesions and hemorrhage	more efficacious	less than 3%	30
